Assays:
[1] = system: Foxtail (Setaria viridis); assay: Upland soil application test, green foxtail; assay type: in vivo; details: 1200 h, soil application one day after seeding, 50 g ai/a, wettable powder, fresh weight on 50th day after spray, read-out: Herbicidal effects Foxtail (Setaria viridis)
Experimental: (§1) Resin-made 1/1000-are pots were filled with the soil of an upland field. After they were fertilized, cotton and soybean were seeded and 3 cm soil covering was applied. In addition, amaranth, common lambs-quarters, barnyardgrass, green foxtail, large crabgrass and johnsongrass were seeded and 1 cm soil covering was applied. One day later, a wettable powder prepared from a predetermined amount of each test compound in a similar manner to the procedures described in Formulation Example 1 was diluted with water and then sprayed evenly at an application rate equal to 10 l per are onto the surface of the soil by means of a pressure-operated sprayer. The weeds and crops were allowed to grow in a green house and influence to them were observed on the 50th day after the spray. The degree of damages of each test plant and the degree of injury to each crop were determined by measuring fresh weight in each group and indicated by % calculated according to the following formula. [formula]

[2] = system: Amaranth (Amaranthus viridis); assay: Upland soil application test, amaranth; assay type: in vivo; details: 1200 h, soil application one day after seeding, 50 g ai/a, wettable powder, fresh weight on 50th day after spray, read-out: Herbicidal effects Amaranth (Amaranthus viridis)
Experimental: as §1

[3] = system: Crabgrass (Digitaria adscendens); assay: Upland foliar application test, large crabgrass; assay type: in vivo; details: 960 h, foliar application at stage of 2-3 leaves, 50 g ai/a, emulsion, 40th day after spray, read-out: Herbicidal effects Crabgrass (Digitaria adscendens)
Experimental: as §1
(§2) Resin-made 1/1000-are pots were filled with the soil of an upland field. After they were fertilized, cotton and soybean were seeded and 3 cm soil covering was applied. Five days later, amaranth, common lambsquarters, barnyardgrass, green foxtail, large crabgrass and johnsongrass were seeded and 1 cm soil covering was applied. They were allowed to grow in a green house. When each plant grew to the stage of 2-3 leaves, an emulsion formulated from a predetermined amount of each test compound in a similar manner to the procedures described in Formulation Example 11 was diluted with water and then sprayed at a predetermined application rate by means of a pressure-operated sprayer. The application rate was controlled at 5 l per are. Influence to the crops and weeds were observed on the 40th day after the spray of the herbicides. The results are shown in Table 4 in which the degree of damages of each test plant and the degree of injury to each crop are shown in a similar manner to Test 2.

[4] = system: common lambsquarters; assay: Upland foliar application test, common lambsquarters; assay type: in vivo; details: Chenopodium album, 960 h; foliar application at stage of 2-3 leaves, 50 g ai/a, emulsion, 40th day after spray; read-out: Herbicidal effects Common lambquarters
Experimental: as §2

[5] = system: Cotton (Gossypium indicum); assay: Upland soil application test, crop injury cotton; assay type: in vivo; details: soil application one day after seeding, 50 g ai/a, wettable powder, fresh weight on 50th day after spray
Experimental: as §1

[6] = system: Cotton (Gossypium indicum); assay: Upland foliar application test, crop injury cotton; assay type: in vivo; details: foliar application at stage of 2-3 leaves, 50 g ai/a, emulsion, 40th day after spray
Experimental: as §1, §2

[7] = system: ALS (acetolactate syntase) from barnyardgrass seedlings; assay: ALS (acetolactate syntase) inhibition test, barnyardgrass enzyme; assay type: biochemical; details: 10,000 ppm (0.5 μg/0.5 ml) of compound; 1 hour at 30° C.; absorbance at 525 nm
Experimental: (§3) To determine the selectivity in enzyme level between crops and weeds, an ALS inhibition test was conducted using pea as a typical broadleaf crop and barnyardgrass as a representative gramineous weeds.
(§4) After seeds of pea and barnyardgrass were allowed to germinate at 25° C. for 8-14 days in a dark place, partially-purified suspensions (Suspensions A) of acetolactate syntase were separately obtained from the seedlings in accordance with the procedures described in the literature, Plant Physiology, 75, 827-831. In a test tube, 0.5 mg of one of test compounds was weighed, followed by the addition of 0.15 ml of a 20 mM K2 HPO4 solution and 0.25 ml of a reaction substrate medium which consisted of 40 mM of K2 HPO4, 40 mM of sodium pyruvate, 1 mM of TPP, 1 mM of MgCl2 and 20 μM of FAD so that 0.4 ml of a reaction solution (Solution B) was prepared. Added to 0.4 ml of Solution B was 0.1 ml of Suspension A. After the resultant mixture was shaken for 1 hour in a thermostat water bath controlled at 30° C., 50 μl of 6N sulfuric acid were added to terminate the reaction.
(§5) Next, the test tube with the reaction-terminated liquid mixture contained therein was transferred into a thermostat water bath controlled at 60° C. and was heated for 15 minutes. Thereafter, 0.5 ml of a 0.5% creatine solution and 0.5 ml of a 5% alkaline α-naphthol solution were added, and the resultant mixture was maintained at 60° C. for 15 minutes. As a result, the test solution developed a pink-to-red color. After the above operation, the absorbance of the test solution at 525 nm was measured by a spectrophotometer (Absorbance 1 of Test Compound).
(§6) Further, the absorbance (Absorbance 2 of Blank) of a solution obtained by subjecting a portion of Solution B to the above procedures without addition of any test compound and the absorbance (Absorbance 3 of sulfuric acid) of another solution obtained by subjecting another portion of Solution B to the above procedures which using 50 μl of 6N sulfuric acid as a test compound were also measured.

[8] = system: Barnyardgrass (Echinochloa crusgalli); assay: Upland soil application test, barnyardgrass; assay type: in vivo; details: Echinochloa crus-galli, 1200 h; soil application one day after seeding, 50 g ai/a, wettable powder, fresh weight on 50th day after spray; read-out: Herbicidal effects Barnyardgrass (Echinochloa crusgalli)
Experimental: as §1

[9] = system: Johnsongrass; assay: Upland foliar application test, johnsongrass; assay type: in vivo; details: Sorghum halepense, 960 h; foliar application at stage of 2-3 leaves, 50 g ai/a, emulsion, 40th day after spray; read-out: Herbicidal effects Johnsongrass
Experimental: as §2

[10] = system: ALS (acetolactate syntase) from pea seedlings; assay: ALS (acetolactate syntase) inhibition test, pea enzyme; assay type: biochemical; details: 10,000 ppm (0.5 μg/0.5 ml) of compound; 1 hour at 30° C.; absorbance at 525 nm
Experimental: as §3, §4, §5, §6

[11] = system: Barnyardgrass (Echinochloa crusgalli); assay: Upland foliar application test, barnyardgrass; assay type: in vivo; details: Echinochloa crus-galli, 960 h; foliar application at stage of 2-3 leaves, 50 g ai/a, emulsion, 40th day after spray; read-out: Herbicidal effects Barnyardgrass (Echinochloa crusgalli)
Experimental: as §2

[12] = system: Amaranth (Amaranthus viridis); assay: Upland foliar application test, amaranth; assay type: in vivo; details: 960 h, foliar application at stage of 2-3 leaves, 50 g ai/a, emulsion, 40th day after spray, read-out: Herbicidal effects Amaranth (Amaranthus viridis)
Experimental: as §1, §2

[13] = system: Soybean (Glycine max); assay: Upland foliar application test, crop injury soybean; assay type: in vivo; details: foliar application at stage of 2-3 leaves, 50 g ai/a, emulsion, 40th day after spray
Experimental: as §2

[14] = system: Soybean (Glycine max); assay: Upland soil application test, crop injury soybean; assay type: in vivo; details: soil application one day after seeding, 50 g ai/a, wettable powder, fresh weight on 50th day after spray
Experimental: as §1

[15] = system: Foxtail (Setaria viridis); assay: Upland foliar application test, green foxtail; assay type: in vivo; details: 960 h, foliar application at stage of 2-3 leaves, 50 g ai/a, emulsion, 40th day after spray, read-out: Herbicidal effects Foxtail (Setaria viridis)
Experimental: as §1, §2

[16] = system: Crabgrass (Digitaria adscendens); assay: Upland soil application test, large crabgrass; assay type: in vivo; details: 1200 h, soil application one day after seeding, 50 g ai/a, wettable powder, fresh weight on 50th day after spray, read-out: Herbicidal effects Crabgrass (Digitaria adscendens)
Experimental: as §1

[17] = system: common lambsquarters; assay: Upland soil application test, common lambsquarters; assay type: in vivo; details: Chenopodium album, 1200 h; soil application one day after seeding, 50 g ai/a, wettable powder, fresh weight on 50th day after spray; read-out: Herbicidal effects Common lambquarters
Experimental: as §1

[18] = system: Johnsongrass; assay: Upland soil application test, johnsongrass; assay type: in vivo; details: Sorghum halepense, 1200 h; soil application one day after seeding, 50 g ai/a, wettable powder, fresh weight on 50th day after spray; read-out: Herbicidal effects Johnsongrass
Experimental: as §1

[19] = system: johnsongrass emerging from rhizome; assay: Application test on johnsongrass emerging from rhizome; assay type: in vivo; details: foliar application at stage of 4-5 leaves, application rate of active ingredient 20 (unit not given), emulsion, 50th day after spray
Experimental: as §1
Resin-made 1/1000-are pots were filled with the soil of an upland field. After they were fertilized, rhizome of johnsongrass were transplanted to the pots and 3 cm soil covering was applied. They were allowed to grow in a green house. When each johnsongrass grew to the stage of 4-5 leaves, an emulsion formulated from a predetermined amount of each test compound in a similar manner to the procedures described in Formulation Example 11 was diluted with water and then sprayed at a predetermined application rate by means of a pressure-operated sprayer. The application rate was controlled at 5 l per are. The effect of each compound against the johnsongrass emerging from its rhizome was observed on the 50th day after the spray of the herbicides. The results are shown in Table 5 in which the herbicidal effect against johnsongrass is shown in a similar manner to Test 2.

| Structure (SMILES) | pest or weed control at 5000 g/ha [1] | pest or weed control at 5000 g/ha [2] | pest or weed control at 5000 g/ha [3] | pest or weed control at 5000 g/ha [4] | Crop injury Cotton (Gossypium indicum) [5] | Crop injury Cotton (Gossypium indicum) [6] | Enzymoreaction inhibition rate (%) Barnyardgrass [7] | pest or weed control at 5000 g/ha [8] | pest or weed control at 5000 g/ha [9] | Enzymoreaction inhibition rate (%) Pea [10] | pest or weed control at 5000 g/ha [11] | pest or weed control at 5000 g/ha [12] | Crop injury Soybean (Glycine max) [13] | Crop injury Soybean (Glycine max) [14] | pest or weed control at 5000 g/ha [15] | pest or weed control at 5000 g/ha [16] | pest or weed control at 5000 g/ha [17] | pest or weed control at 5000 g/ha [18] | Herbicidal effect against johnsongrass emerging from rhizome [19] |
| --- | --- | --- | --- | --- | --- | --- | --- | --- | --- | --- | --- | --- | --- | --- | --- | --- | --- | --- | --- |
| CCCOC(OCCC)c1ccccc1Oc1nc(OC)cc(OC)n1 [Compound No. 1] | 100% | 100% | 100% | 100% | 0% | 0% | 100% | 100% | 100% | 0% | 100% | 100% | 0% | 0% | 100% | 100% | 100% | 100% | 100% |
| COc1cc(OC)nc(Oc2ccccc2C(OC(C)C)OC(C)C)n1 [Compound No. 2] | 85% | 80% | 85% | 80% | 0% | 0% | 100% | 80% | 100% | 0% | 80% | 100% | 0% | 0% | 100% | 80% | 85% | 100% | 95% |
| CCCCOC(OCCCC)c1ccccc1Oc1nc(OC)cc(OC)n1 [Compound No. 3, 2-(4,6-dimethoxypyrimidin-2-yloxy)benzaldehyde di-n-butylacetal] | 100% | 100% | 100% | 100% | 0% | 0% | 100% | 100% | 100% | 0% | 100% | 100% | 0% | 0% | 100% | 100% | 100% | 100% | 100% |
| CCCCCOC(OCCCCC)c1ccccc1Oc1nc(OC)cc(OC)n1 [Compound No. 4] | 100% | 100% | 100% | 100% | 0% | 0% | 100% | 100% | 100% | 0% | 100% | 100% | 0% | 0% | 100% | 100% | 100% | 100% | 100% |
| CCCCCCOC(OCCCCCC)c1ccccc1Oc1nc(OC)cc(OC)n1 [Compound No. 5, 2-(4,6-dimethoxypyrimidin-2-yloxy)benzaldehyde di-n-hexylacetal] | 100% | 100% | 100% | 100% | 0% | 0% | 100% | 100% | 100% | 0% | 100% | 100% | 0% | 0% | 100% | 100% | 100% | 100% | 100% |

— patent US5178662A, “Benzaldehyde acetal compounds, preparation process thereof, and herbicidal compositions containing the same as active ingredients” (Mitsui Toatsu Chemicals, Inc., priority 1990, dated 1993)
